The values below come from patent US9113631B2, “1,3-diaryl-substituted heterocyclic pesticides” (E I DU PONT DE NEMOURS AND COMPANY, priority 2011, dated 2015).

Molecules are shown by their SMILES. Bounds are passed on as bounds.

The subject of the assay is potato leafhopper (Empoasca fabae). The assay can be described thus: Test F: control of potato leafhopper on Soleil bean plant, contact and/or systemic. The format is in vivo. The following applies: 144 h, sprayed at 250 ppm, adults on Soleil bean plant, 6 days, 24° C., read-out: control efficacy, very good to excellent: mortality. On the procedure: Test compounds were formulated using a solution containing 10% acetone, 90% water and 300 ppm X-77® Spreader Lo-Foam Formula non-ionic surfactant containing alkylarylpolyoxyethylene, free fatty acids, glycols and isopropanol (Loveland Industries, Inc. Greeley, Colo., USA). The formulated compounds were applied in 1 mL of liquid through a SUJ2 atomizer nozzle with 1/8 JJ custom body (Spraying Systems Co., Wheaton, Ill., USA) positioned 1.27 cm (0.5 inches) above the top of each test unit. Test compounds were sprayed at 250 ppm and/or 50 ppm, and replicated three times. After spraying of the formulated test compound, each test unit was allowed to dry for 1 h and then a black, screened cap was placed on top. The test units were held for 6 days in a growth chamber at 25° C. and 70% relative humidity. Plant feeding damage was then visually assessed based on foliage consumed. […]
Test compounds were formulated and sprayed at 250 ppm and/or 50 ppm, and the tests were replicated three times as described for Test A. After spraying, the test units were allowed to dry for 1 h before they were post-infested with 5 potato leafhoppers (18-21-day-old adults). […] Each test unit was then visually assessed for insect mortality.

`N#CC1CCN(Cc2cn(-c3cccc(C(F)(F)F)c3)nc2-c2ccc(F)cc2)CC1` [Compound 12, 1-[[3-(4-fluorophenyl)-1-[3-(trifluoromethyl)phenyl]-1H-pyrazol-4-yl]methyl]-4-piperidinecarbonitrile]: the mortality – broadly, the percentage killed – at 250 ppm is not below 80%.
